Assay results taken from patent US20200079765A1, “SUBSTITUTED HETEROARYL PYRROLONES AND SALTS THEREOF AND USE THEREOF AS HERBICIDAL ACTIVE SUBSTANCES” (Bayer CropScience Aktiengesellschaft, priority 2016, published 2020).

Experiments:
Amaranthus retroflexus [1] = assay: Pre-emergence herbicidal action (Experimental Part 1, B); format: in vivo; conditions: application rate 1280 g/ha, scored visually after about 3 weeks
Source text: Seeds of monocotyledonous and dicotyledonous weed plants and crop plants were placed in plastic or organic planting pots and covered with soil. The compounds of the invention, formulated in the form of wettable powders (WP) or as emulsion concentrates (EC), were then applied onto the surface of the covering soil as aqueous suspension or emulsion with addition of 0.5% additive at a water application rate of 600 l/ha (converted). After the treatment, the pots were placed in a greenhouse and kept under good growth conditions for the test plants. After about 3 weeks, the effect of the preparations was scored visually in comparison with untreated controls as percentages. For example, 100% activity=the plants have died, 0% activity=like control plants. Tables B1 to B14 below show the effects of selected compounds of the general formula (I) according to Tables I.1 to I.116 on various harmful plants and an application rate corresponding to 1280 g/ha or 320 g/ha, which were obtained by the experimental procedure mentioned above.

Abutilon theophrasti [2] = assay: Herbicidal post-emergence action (Experimental Part 2, C); format: in vivo; conditions: post-emergence (Part 2), application rate 1280 g/ha, rated visually after about 3 weeks
Description: (§1) Seeds of mono- and dicotyledonous weed plants were placed in plastic pots in sandy loam soil (doubly sown with in each case one species of mono- or dicotyledonous weed plants per pot), covered with soil and cultivated in a greenhouse under controlled growth conditions. 2 to 3 weeks after sowing, the test plants were treated at the one-leaf stage. The compounds of the invention, formulated in the form of wettable powders (WP) or as emulsion concentrates (EC), were applied onto the green parts of the plants as aqueous suspension or emulsion with addition of 0.5% additive at a water application rate of 600 liters per hectare (converted). After the test plants had been kept in the greenhouse under optimum growth conditions for about 3 weeks, the activity of the preparations was rated visually in comparison to untreated controls. For example, 100% activity=the plants have died, 0% activity=like control plants. Tables C1 to C8 below show the effects of selected compounds of the general formula (I) according to Tables I.1 to I.116 on various harmful plants and an application rate corresponding to 1280 g/ha or 320 g/ha, which were obtained by the experimental procedure mentioned above.

Matricaria inodora [3] = assay: as above; format: in vivo; conditions: post-emergence (Part 2), application rate 1280 g/ha, rated visually after about 3 weeks
Description: as §1

Poa annua [4] = assay: as above; format: in vivo; conditions: post-emergence (Part 2), application rate 1280 g/ha, rated visually after about 3 weeks
Description: as §1

Abutilon theophrasti [5] = assay: Herbicidal pre-emergence action (Experimental Part 2, D); format: in vivo; conditions: pre-emergence (Part 2), application rate 1280 g/ha, scored visually after about 3 weeks
Source text: (§2) Seeds of mono- and dicotyledonous weed plants were placed in plastic pots in sandy loam soil (doubly sown with in each case one species of mono- or dicotyledonous weed plants per pot) and covered with soil. The compounds of the invention, formulated in the form of wettable powders (WP) or as emulsion concentrates (EC), were then applied onto the surface of the covering soil as aqueous suspension or emulsion with addition of 0.5% additive at a water application rate of 600 liters per hectare (converted). After the treatment, the pots are placed in a greenhouse and kept under good growth conditions for the trial plants. After about 3 weeks, the effect of the preparations was scored visually in comparison with untreated controls as percentages. For example, 100% activity=the plants have died, 0% activity=like control plants. Tables D1 to D8 below show the effects of selected compounds of the general formula (I) according to Tables I.1 to I.116 on various harmful plants and an application rate corresponding to 1280 g/ha or 320 g/ha, which were obtained by the experimental procedure mentioned above.

Amaranthus retroflexus [6] = assay: as above; format: in vivo; conditions: pre-emergence (Part 2), application rate 1280 g/ha, scored visually after about 3 weeks
Source text: as §2

Matricaria inodora [7] = assay: as above; format: in vivo; conditions: pre-emergence (Part 2), scored visually after about 3 weeks
Source text: as §2

Poa annua [8] = assay: as above; format: in vivo; conditions: pre-emergence (Part 2), scored visually after about 3 weeks
Source text: as §2

Setaria viridis = assay: as above; format: in vivo; conditions: pre-emergence (Part 2), application rate 1280 g/ha, scored visually after about 3 weeks
Source text: as §2

Stellaria media [9] = assay: as above; format: in vivo; conditions: pre-emergence (Part 2), scored visually after about 3 weeks
Source text: as §2

Amaranthus retroflexus [10] = assay: Herbicidal post-emergence action (Experimental Part 2, C); format: in vivo; conditions: post-emergence (Part 2), application rate 320 g/ha, rated visually after about 3 weeks
Description: as §1

photosystem II (PS II) = biological target: T1, photosystem II (PS II) (Spinacia oleracea, UniProt P69560); assay: Measurement of the PS II activity in thylakoid membranes (DCPIP reduction, Experimental Part 3, Table E1); format: biochemical; conditions: spinach thylakoid membranes
T1 construct: the chloroplasts were osmotically ruptured and the thylakoid membranes were then obtained by centrifugation; from tissue; host or cells: thylakoid membranes from fresh spinach leaves
Description: Cooled fresh spinach leaves were comminuted and homogenized in 50 mM phosphate buffer, pH 6.8. 10 mM KCl, 0.34 M sucrose (sucrose buffer) (blender, 1 g of plant material/ml). The homogenate was subsequently filtered through 4 layers of Miracloth and the chloroplasts were isolated by centrifugation, i.e. 10 min of centrifugation at 4400×g (4° C.). The sediment was suspended in 25 ml of sucrose buffer and re-centrifuged for 10 min at 4400×g (4° C.). The sediment was then suspended in 40 ml of 50 mM phosphate buffer, pH 6.8, 10 mM KCl, without sucrose. In this step, the chloroplasts were osmotically ruptured and the thylakoid membranes were then obtained by centrifugation (10 min, 4400×g, 4° C.). The membrane sediment was finally suspended in about 20 ml of 50 mM phosphate buffer, pH 6.8, 10 mM KCl. Following protein determination and activity determination, the membrane suspension was divided into aliquots and frozen in liquid nitrogen. The aliquots were stored at −80° C. Under these conditions, the photosystem II preparation was storage stable for at least three months. The activity determination of photosystem II (PS II) was then carried out using the following test principle: The electron transfer from PS II to an artificial electron acceptor, 2,6-dichlorophenolindophenol (DCPIP), was measured with exposure to light. The concentration of the blue oxidized form of DCPIP was determined spectrophotometrically at wavelength λ=595 nm. […] The activity determination was carried out in microtiter plates (96 cavities) in a reaction volume of 200 μl. Here, 155 μl of dilute membrane suspension were initially charged in 50 mM of phosphate buffer, pH 6.8, 10 mM KCl. Depending on the activity of the PS II preparation, the dilution was adjusted such that the measurement of the decrease in absorption (λ=595 nm) was linear for at least 10 min. In each case 5 μl solution of the test compounds of a concentration of 100 μM in DMSO were added to the enzyme suspension; controls contained 5 μl DMSO; the final concentration of DMSO in the reaction batch was thus 2.5% (v/v); this concentration had no adverse effect on the enzymatic activity. On each microtiter plate, a known PS II inhibitor, for example metribuzin, was used as standard, which allowed the quality of the PS II test to be assessed. The reaction was started by addition of 40 μl DCPIP solution (600 μM in distilled water); the final concentration of DCPIP was 120 μM. Measurement of absorption was carried out over a period of 10 min at 22° C. and with exposure to light. Using metribuzin as comparative substance, the results for the efficacy of the compounds of the general formula (I) at 100 μM are stated in the table below using the following classification: ++++ (inhibition≥90%), +++ (90%>inhibition≥70%), ++ (70%>inhibition≥50%), + (50%>inhibition≥30%).
Effects of selected compounds of the general formula (I) according to the following table E1: […]

Stellaria media [11] = assay: Herbicidal post-emergence action (Experimental Part 2, C); format: in vivo; conditions: post-emergence (Part 2), application rate 1280 g/ha, rated visually after about 3 weeks
Description: as §1

Lolium rigidum = assay: Herbicidal pre-emergence action (Experimental Part 2, D); format: in vivo; conditions: pre-emergence (Part 2), application rate 1280 g/ha, scored visually after about 3 weeks
Source text: as §2

Compound	Abutilon theophrasti, herbicidal activity (Abutilon theophrasti [2]) [%]	Matricaria inodora, herbicidal activity (Matricaria inodora [3]) [%]	Abutilon theophrasti, herbicidal activity (Abutilon theophrasti [5]) [%]	Setaria viridis, herbicidal activity (Setaria viridis) [%]	Effect (inhibition of PS II activity) (photosystem II (PS II))	further results
CC(=O)OC1C(C)=CC(=O)N1c1cc(C(C)(C)C)no1 (stereo not drawn) [I.3-290]	100	90	100	90	–	Amaranthus retroflexus, herbicidal activity (Amaranthus retroflexus [1]): 90%; Poa Annua, herbicidal activity (Poa annua [4]): 100%; Amaranthus retroflexus, herbicidal activity (Amaranthus retroflexus [6]): 90%; Matricaria inodora, herbicidal activity (Matricaria inodora [7]; application rate 1280 g/ha): 100%; Poa Annua, herbicidal activity (Poa annua [8]; application rate 1280 g/ha): 90%; Stellaria media, herbicidal activity (Stellaria media [9]; application rate 1280 g/ha): 100%
CC1=CC(=O)N(c2cc(C(C)C)no2)C1O (stereo not drawn) [I.1-289]	100	100	100	90	–	Amaranthus retroflexus, herbicidal activity (Amaranthus retroflexus [10]): 100%; Amaranthus retroflexus, herbicidal activity (Amaranthus retroflexus [6]): 90%; Matricaria inodora, herbicidal activity (Matricaria inodora [7]; application rate 1280 g/ha): 100%; Poa Annua, herbicidal activity (Poa annua [8]; application rate 1280 g/ha): 100%; Stellaria media, herbicidal activity (Stellaria media [9]; application rate 1280 g/ha): 100%
CSc1nnc(C(C)(C)C)c(=O)n1N [metribuzin, reference compound]	–	–	–	–	++++ (inhibition≥90%)	–
CC1=CC(O)N(c2cc(C)ns2)C1=O (stereo not drawn) [I.2-72]	–	–	–	–	++ (70%>inhibition≥50%)	–
CC1=CC(=O)N(c2cc(CC(C)C)no2)C1O (stereo not drawn) [I.1-697]	–	–	–	–	++++ (inhibition≥90%)	–
CCC(=O)OC1C(C)=CC(=O)N1c1cc(C(C)(C)C)no1 (stereo not drawn) [I.5-290]	100	100	100	90	–	Stellaria media, herbicidal activity (Stellaria media [11]): 100%; Lolium rigidum, herbicidal activity (Lolium rigidum): 90%; Matricaria inodora, herbicidal activity (Matricaria inodora [7]; application rate 320 g/ha): 100%; Poa Annua, herbicidal activity (Poa annua [8]; application rate 320 g/ha): 90%; Stellaria media, herbicidal activity (Stellaria media [9]; application rate 320 g/ha): 100%
CC1=CC(=O)N(c2cc(C(F)(F)F)ccn2)C1O (stereo not drawn) [I.1-449]	–	–	–	–	++++ (inhibition≥90%)	–
CC1=CC(=O)N(c2cc(C(C)(C)C)n(C)n2)C1O (stereo not drawn) [I.1-315]	–	–	–	–	++++ (inhibition≥90%)	–
